PMC3220491 (The Journal of Biological Chemistry, 2011)
Positions count from the first letter of the chain named.

How the values were obtained:
Test in all cases: SAT activity, acetyl-CoA decrease at […] nm
TgSAT-c = target: T1, TgSAT-c (Noccaea goesingensis, UniProt Q6IWF8); type: biochemical
T1 sequence (Q6IWF8 1-311): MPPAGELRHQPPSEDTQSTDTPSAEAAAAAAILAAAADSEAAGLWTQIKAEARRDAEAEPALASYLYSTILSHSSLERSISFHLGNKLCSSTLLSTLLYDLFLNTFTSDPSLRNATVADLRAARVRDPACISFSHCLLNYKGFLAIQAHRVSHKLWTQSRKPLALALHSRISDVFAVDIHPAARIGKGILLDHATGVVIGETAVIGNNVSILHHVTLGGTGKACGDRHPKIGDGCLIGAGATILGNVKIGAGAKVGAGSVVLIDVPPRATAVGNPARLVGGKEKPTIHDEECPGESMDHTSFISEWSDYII

AtSAT-c [1] = target: T2, AtSAT-c (Arabidopsis thaliana, UniProt Q42538); type: biochemical
T2 sequence (Q42538 1-312): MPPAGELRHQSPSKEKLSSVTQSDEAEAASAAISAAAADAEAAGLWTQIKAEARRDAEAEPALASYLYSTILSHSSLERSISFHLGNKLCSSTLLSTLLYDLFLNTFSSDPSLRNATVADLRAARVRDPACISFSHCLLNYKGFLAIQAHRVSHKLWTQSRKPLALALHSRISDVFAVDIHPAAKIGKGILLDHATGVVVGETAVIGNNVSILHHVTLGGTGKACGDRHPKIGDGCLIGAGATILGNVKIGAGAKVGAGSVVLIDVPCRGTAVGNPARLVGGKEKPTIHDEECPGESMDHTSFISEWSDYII

Tg-N/At-C = type: biochemical, Noccaea goesingensis; Arabidopsis thaliana; details: 1 mM L-serine, 0.1 mM acetyl-CoA, 50 mM Tris-HCl pH 8.0, room temperature; feedback inhibition
AtSAT-c [2] = target: T3, AtSAT-c (Arabidopsis thaliana, UniProt Q42538, C268P); type: biochemical
T3 sequence (Q42538 1-312 C268P): T2 sequence (Q42538 1-312) with C268P

AtSAT-c [3] = target: T4, AtSAT-c (Arabidopsis thaliana, UniProt Q42538, C268P/G270A); type: biochemical
T4 sequence (Q42538 1-312 C268P/G270A): T2 sequence (Q42538 1-312) with C268P, G270A

TgSAT-p = target: T5, TgSAT-p (Noccaea goesingensis, UniProt Q6IWF9); type: biochemical
T5 sequence (Q6IWF9 1-319): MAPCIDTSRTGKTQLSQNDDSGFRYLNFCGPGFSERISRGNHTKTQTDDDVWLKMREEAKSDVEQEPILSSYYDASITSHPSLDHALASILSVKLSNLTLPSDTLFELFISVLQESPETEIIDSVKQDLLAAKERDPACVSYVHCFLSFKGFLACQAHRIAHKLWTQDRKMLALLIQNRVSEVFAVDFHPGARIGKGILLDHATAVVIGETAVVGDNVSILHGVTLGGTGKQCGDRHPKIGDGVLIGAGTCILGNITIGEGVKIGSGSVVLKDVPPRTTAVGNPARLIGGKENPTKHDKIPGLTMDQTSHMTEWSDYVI

AtSAT-c [4] = target: T6, AtSAT-c (Arabidopsis thaliana, UniProt Q42538, G270A); type: biochemical
T6 sequence (Q42538 1-312 G270A): T2 sequence (Q42538 1-312) with G270A

TgSAT-m = target: T7, TgSAT-m (Noccaea goesingensis, UniProt Q6IWG0); type: biochemical
T7 sequence (Q6IWG0 1-395): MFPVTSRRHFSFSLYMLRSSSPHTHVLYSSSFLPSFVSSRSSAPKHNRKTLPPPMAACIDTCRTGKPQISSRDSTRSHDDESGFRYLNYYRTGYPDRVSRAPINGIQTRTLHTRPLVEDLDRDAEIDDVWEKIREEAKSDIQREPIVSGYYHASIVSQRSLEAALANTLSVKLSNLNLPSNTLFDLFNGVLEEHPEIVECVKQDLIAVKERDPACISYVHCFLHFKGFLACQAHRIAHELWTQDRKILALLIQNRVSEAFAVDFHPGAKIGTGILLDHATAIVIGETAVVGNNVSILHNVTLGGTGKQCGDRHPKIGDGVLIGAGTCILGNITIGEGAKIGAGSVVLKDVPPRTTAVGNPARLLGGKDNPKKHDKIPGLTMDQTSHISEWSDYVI

At-N/Tg-C = type: biochemical, Arabidopsis thaliana; Noccaea goesingensis; details: 1 mM L-serine, 0.1 mM acetyl-CoA, 50 mM Tris-HCl pH 8.0, room temperature; feedback inhibition

**Q.** How did the IC50 (TgSAT-c) turn out when `N[C@@H](CS)C(=O)O` [L-Cys] was run?
**A.** The IC50 was over 100 µM.

**Q.** What about the IC50 (AtSAT-c [1]) of the same molecule?
**A.** The IC50 was 3.3 µM.

**Q.** What about the IC50 (Tg-N/At-C) of the same molecule?
**A.** The IC50 was 3.4 µM.

**Q.** And the IC50 (AtSAT-c [2])?
**A.** Its IC50 is 83.9 µM.

**Q.** What about the IC50 (AtSAT-c [3]) of the same molecule?
**A.** The IC50 was over 100 µM.

**Q.** And the IC50 (TgSAT-p)?
**A.** The IC50 was over 100 µM.

**Q.** And the IC50 (AtSAT-c [4])?
**A.** Its IC50 is 17.7 µM.

**Q.** And the IC50 (TgSAT-m)?
**A.** Its IC50 is over 100 µM.

**Q.** And the IC50 (At-N/Tg-C)?
**A.** The IC50 was over 100 µM.
